{"source": "patent US20230103142A1", "about": "“SMALL MOLECULE REGULATORS OF NOTCH1 AND USES THEREOF” (THE PENN STATE RESEARCH FOUNDATION, priority 2020, published 2023)", "key": {"[1]": {"system": "ubiquitin in ALDH+ cells", "test": "ubiquitin expression", "type": "cell-based", "source_text": "Commercially available positive and negative controls were used for these experiments."}, "[2]": {"system": "MDA-MB-231 TNBC cells", "test": "cell viability assay", "type": "cell-based", "settings": "1/20th of IC50 of DOX alone", "procedure": "Synergistic effects of combinations were calculated via isobologram analysis."}, "[3]": {"system": "Notch 1 activation in MDA-MB-231 TNBC cells", "test": "Western blot of NICD and HES1", "type": "cell-based", "settings": "vs vehicle treated controls"}, "[4]": {"system": "TCCSUP cells", "test": "MTT cell viability assay", "type": "cell-based", "procedure": "(§1) Cell culture and viability assay. […] Cell lines were maintained in Eagle's Minimum Essential Medium at 37° C. and 5% CO2. […] TCCSUP and HT1376 cells were treated with varying concentrations of ASR488 (0.2-12.5 μM) for 24, 48, and 72 h."}, "[5]": {"system": "HT1376 cells", "test": "MTT cell viability assay", "type": "cell-based", "procedure": "as §1"}, "[6]": {"system": "CPEB1 knockdown TCCSUP cells", "test": "cell death in CPEB1 siRNA knockdown cells", "type": "cell-based", "text": "To analyze whether ASR488 treatment can induce p27 mediated cell death in CPEB1 knockdown bladder cancer cells, we knocked down CPEB1 with SiRNA in TCCSUP cells. (FIG. 11A) ASR488 treatment was unable to restore CPEB1 expression in CPEB1 knockdown cells. Moreover, P27 expression corresponded with CPEB1 expression pattern in the Knockdown cells."}, "[7]": {"system": "TCCSUP cells", "test": "qRT-PCR of top upregulated genes", "type": "cell-based", "settings": "vs vehicle (DMSO)", "text": "The blue dots represent the genes that are without any significant diversity. […] The sum of the numbers in each large circle are the total number of genes in ASR488-treated or vehicle-treated TCCSUP cells, and the common genes among the samples are represented in the overlapping part."}, "[8]": {"target": "CPEB1 (Homo sapiens, UniProt Q9BZB8)", "sequence (Q9BZB8 whole entry)": "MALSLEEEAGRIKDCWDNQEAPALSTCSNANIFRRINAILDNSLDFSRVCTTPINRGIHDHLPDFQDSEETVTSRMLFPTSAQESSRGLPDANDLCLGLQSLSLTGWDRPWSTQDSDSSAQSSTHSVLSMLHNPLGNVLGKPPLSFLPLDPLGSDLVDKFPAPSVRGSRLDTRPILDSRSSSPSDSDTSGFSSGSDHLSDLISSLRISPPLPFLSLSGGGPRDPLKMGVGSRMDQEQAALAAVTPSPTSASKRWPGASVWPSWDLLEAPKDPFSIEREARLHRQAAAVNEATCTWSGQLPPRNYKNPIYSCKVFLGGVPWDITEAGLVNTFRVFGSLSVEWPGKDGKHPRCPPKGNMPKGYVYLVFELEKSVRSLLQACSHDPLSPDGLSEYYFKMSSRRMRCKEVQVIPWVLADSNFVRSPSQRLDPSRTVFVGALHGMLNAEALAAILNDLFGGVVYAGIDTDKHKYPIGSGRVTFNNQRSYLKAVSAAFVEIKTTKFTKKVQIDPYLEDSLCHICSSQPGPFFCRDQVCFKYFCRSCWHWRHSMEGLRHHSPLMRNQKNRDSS", "test": "scanning fluorimetry with purified CPEB1 protein", "type": "binding", "text": "(FIG. 9B) ASR488 treatment induces p53 independent p27 upregulation in Bladder Cancer cells. (FIG. 9C) The result is GO/G1 cell cycle arrest in ASR488 treated Bladder Cancer Cells. (FIG. 9D) p27 upregulation is due to CPEB1 induction by overexpressing CPEB1 in TCCSUP cells."}, "[9]": {"system": "normal BCa cells", "test": "toxicity to normal cells", "type": "cell-based"}, "[10]": {"system": "TCCSUP cells", "test": "Annexin V-FITC/PI apoptosis flow cytometry", "type": "cell-based", "settings": "24 h treatment", "procedure": "(§2) Detection of apoptosis by flow cytometry and immunoblotting. Annexin V-fluorescein isothiocyanate (FITC) against propidium iodide (PI) assay (FITC Annexin V Apoptosis Detection Kit I, BD Pharminogen, San Diego, Calif., USA) was used for detecting apoptosis as described previously. Total protein extracts from TCCSUP cells were prepared with the Mammalian Protein Extraction Reagent (Thermo Scientific, Rockford, Ill., USA) according to the manufacturer's instructions. Western blotting was performed using specific antibodies against Cleaved PARP (Cat #5625), BAX (Cat #5023) (Cell signaling Technology), and β-actin (Santa Cruz Biotechnologies, Dallas, Tex., USA). The positive bands were detected using enhanced chemiluminescence."}, "[11]": {"system": "HT1376 cells", "test": "Annexin V-FITC/PI apoptosis flow cytometry", "type": "cell-based", "settings": "HT1376, 24 h treatment", "procedure": "as §2"}, "[12]": {"system": "TCCSUP cells", "test": "RNA-seq differential gene expression analysis", "type": "cell-based", "text": "RNA isolation, cDNA library construction, and DNA sequencing. TCCSUP cells treated with vehicle (DMSO) or ASR488 were subjected to RNA isolation using TRIzol® (Invitrogen; Thermo Fisher Scientific, Inc., Waltham, Mass., USA) according to the manufacturer's protocol. Nano Photometer® spectrophotometer (Implen, Inc., Westlake Village, Calif., USA) was used to measure the RNA concentration and purity of the samples. A cDNA library was then constructed using an NEB Next® Ultra™ RNA Library Prep kit for Illumina® (New England Biolabs, Inc., Ipswich, Mass., USA) by Novogene Bioinformatics Technologies Co. Ltd. (Beijing, China) following the manufacturer's protocols. Subsequently, polymerase chain reaction (PCR) was, Universal PCR primers, and Index (X) Primer for double-stranded cDNA amplification. The PCR products generated for PCR performed using Phusion High Fidelity DNA polymerase were purified using the AMPure XP system, and Agilent Bioanalyzer 2100 system was used to analyze the library quality. The cDNA library was sequenced using an Illumina Hiseq 2000/2500 platform and 100 bp/50 bp single-end reads were generated.\nData Analysis. Bioinformatics analysis was performed using a combination of programs including STAR, HTseq, Cufflink, and our wrapped scripts. Tophat program was used to parse the alignments and DESeq2/edgeR was utilized to ascertain differential expressions. To determine GO and KEGG enrichment Cluster Profiler was used.\nFor DESeq2 with biological replicates: DESeq2 R package (2_1.6.3) was used to analyze differential expression between the ASR488 treated and control groups (two biological replicates per condition). The p-values obtained from the analysis were adjusted using the Benjamini and Hochberg's approach so that the false discovery rate (FDR) can be controlled. The genes having adjusted p-value <0.05 were assigned as differentially expressed.\nFor edge R without biological replicates: EdgeR program package (3.16.5) was used to adjust the read counts for each sequenced library before differential gene expression analysis, through one scaling normalized factor. The p-values were adjusted using the Benjamini and Hochberg method. […] The Venn diagrams were prepared using the function Venn diagram in R based on the gene list for different groups."}}, "note": "Residues, ends and D or L forms follow the SMILES beside them. *: point of attachment. Cbz = O=C(OCc1ccccc1)*"}
{"smiles": "CC(C)C[C@@H](C=O)NC(=O)[C@H](CC(C)C)NC(=O)[C@H](CC(C)C)NC(=O)OCc1ccccc1", "note": "[MG-132, reference compound] (Cbz-Leu-Leu-Leu-aldehyde)", "values": [{"measurement": "ubiquitin expression", "setting": "[1]", "result": "higher level of ubiquitin"}]}
{"smiles": "COc1cccc2c1C(=O)c1c(O)c3c(c(O)c1C2=O)C[C@@](O)(C(=O)CO)C[C@@H]3O[C@H]1C[C@H](N)[C@H](O)[C@H](C)O1", "note": "[DOX, Doxorubicin, reference compound]", "values": [{"measurement": "growth inhibition alone", "setting": "[2]", "result": "did not inhibit the growth"}, {"measurement": "Notch 1 activation (NICD and HES 1 levels)", "setting": "[3]", "result": "induction of Notch 1 activation"}]}
{"smiles": "CC1=C(CO)C(=O)O[C@@H]([C@@H](C)[C@H]2CC[C@H]3[C@@H]4C[C@H]5O[C@]56[C@@H](OC(=O)c5cccs5)C=CC(=O)[C@]6(C)[C@H]4CC[C@]23C)C1", "note": "[ASR488]", "values": [{"measurement": "IC50", "setting": "[4]; 24 h", "result": 0.8, "unit": "µM"}, {"measurement": "IC50", "setting": "[4]; 48 h", "result": 0.48, "unit": "µM"}, {"measurement": "IC50", "setting": "[4]; 72 h", "result": 0.45, "unit": "µM"}, {"measurement": "IC50", "setting": "[5]; HT1376, 24 h", "result": 1.28, "unit": "µM"}, {"measurement": "IC50", "setting": "[5]; HT1376, 48 h", "result": 0.75, "unit": "µM"}, {"measurement": "IC50", "setting": "[5]; HT1376, 72 h", "result": 0.85, "unit": "µM"}, {"measurement": "cell death in CPEB1 knockdown cells", "setting": "[6]", "result": "did not induced cell death"}, {"measurement": "CPEB1 upregulation by qRT-PCR", "setting": "[7]", "result": 36, "unit": "fold"}, {"measurement": "CYP4F11 upregulation by qRT-PCR", "setting": "[7]", "result": 15.8, "unit": "fold"}, {"measurement": "IL11 upregulation by qRT-PCR", "setting": "[7]", "result": 30, "unit": "fold"}, {"measurement": "SFN upregulation by qRT-PCR", "setting": "[7]", "result": 20.12, "unit": "fold"}, {"measurement": "change of Tm of bound CPEB1", "setting": "[8]", "result": 9, "unit": "°C"}, {"measurement": "toxicity to normal cells", "setting": "[9]", "result": "non-toxic"}, {"measurement": "apoptosis", "setting": "[10]", "result": 30.5, "unit": "%"}, {"measurement": "apoptosis", "setting": "[11]", "result": 23.2, "unit": "%"}, {"measurement": "Log2 (fold-change) ACTG2", "setting": "[12]; gene ACTG2, treated TCCSUP cells", "result": 3.0293}, {"measurement": "Log2 (fold-change) BBOX1", "setting": "[12]; gene BBOX1, treated TCCSUP cells", "result": "−2.2384"}, {"measurement": "Log2 (fold-change) CMPK2", "setting": "[12]; gene CMPK2, treated TCCSUP cells", "result": "−1.8470"}, {"measurement": "Log2 (fold-change) CPEB1", "setting": "[12]; gene CPEB1, treated TCCSUP cells", "result": 6.3347}, {"measurement": "Log2 (fold-change) CYP4F11", "setting": "[12]; gene CYP4F11, treated TCCSUP cells", "result": 8.3568}, {"measurement": "Log2 (fold-change) DDX60", "setting": "[12]; gene DDX60, treated TCCSUP cells", "result": "−2.5069"}, {"measurement": "Log2 (fold-change) FOS", "setting": "[12]; gene FOS, treated TCCSUP cells", "result": "−1.9465"}, {"measurement": "Log2 (fold-change) GBP4", "setting": "[12]; gene GBP4, treated TCCSUP cells", "result": "−2.2704"}, {"measurement": "Log2 (fold-change) GNGT2", "setting": "[12]; gene GNGT2, treated TCCSUP cells", "result": 2.5802}, {"measurement": "Log2 (fold-change) HSPA6", "setting": "[12]; gene HSPA6, treated TCCSUP cells", "result": 3.5985}, {"measurement": "Log2 (fold-change) IFI44L", "setting": "[12]; gene IFI44L, treated TCCSUP cells", "result": "−1.9791"}, {"measurement": "Log2 (fold-change) IFIT2", "setting": "[12]; gene IFIT2, treated TCCSUP cells", "result": "−1.8473"}, {"measurement": "Log2 (fold-change) IL11", "setting": "[12]; gene IL11, treated TCCSUP cells", "result": 2.9265}, {"measurement": "Log2 (fold-change) MAP1A", "setting": "[12]; gene MAP1A, treated TCCSUP cells", "result": 2.1205}, {"measurement": "Log2 (fold-change) OASL", "setting": "[12]; gene OASL, treated TCCSUP cells", "result": "−1.9737"}, {"measurement": "Log2 (fold-change) RSAD2", "setting": "[12]; gene RSAD2, treated TCCSUP cells", "result": "−2.2235"}, {"measurement": "Log2 (fold-change) SFN", "setting": "[12]; gene SFN, treated TCCSUP cells", "result": 3.7239}, {"measurement": "Log2 (fold-change) SPHK1", "setting": "[12]; gene SPHK1, treated TCCSUP cells", "result": 4.6389}, {"measurement": "Log2 (fold-change) STEAP4", "setting": "[12]; gene STEAP4, treated TCCSUP cells", "result": "−1.8141"}, {"measurement": "Log2 (fold-change) TAGLN", "setting": "[12]; gene TAGLN, treated TCCSUP cells", "result": 2.3661}]}
